Measured values: ChEMBL document CHEMBL4811258, “Potent Antimalarials with Development Potential Identified by Structure-Guided Computational Optimization of a Pyrrole-Based Dihydroorotate Dehydrogenase Inhibitor Series” (J Med Chem, 2021)

What was measured:
[1] = Inhibition of Plasmodium falciparum DHODH expressed in Escherichia coli BL21-DE3 using L-dihydroorotate as substrate by steady-state DCIP method
[2] = molecular target: Dihydroorotate dehydrogenase (quinone), mitochondrial (Homo sapiens, UniProt Q02127); assay type: ADME
Plasmodium falciparum [3] = assay: microbe, parasite or virus in culture; conditions: 3D7, 72 h
[4] = Inhibition of Plasmodium vivax DHODH expressed in Escherichia coli BL21-DE3 using L-dihydroorotate as substrate by steady-state DCIP method
Plasmodium falciparum [5] = system: Plasmodium falciparum

Sequence of Dihydroorotate dehydrogenase (quinone), mitochondrial (Q02127 whole entry): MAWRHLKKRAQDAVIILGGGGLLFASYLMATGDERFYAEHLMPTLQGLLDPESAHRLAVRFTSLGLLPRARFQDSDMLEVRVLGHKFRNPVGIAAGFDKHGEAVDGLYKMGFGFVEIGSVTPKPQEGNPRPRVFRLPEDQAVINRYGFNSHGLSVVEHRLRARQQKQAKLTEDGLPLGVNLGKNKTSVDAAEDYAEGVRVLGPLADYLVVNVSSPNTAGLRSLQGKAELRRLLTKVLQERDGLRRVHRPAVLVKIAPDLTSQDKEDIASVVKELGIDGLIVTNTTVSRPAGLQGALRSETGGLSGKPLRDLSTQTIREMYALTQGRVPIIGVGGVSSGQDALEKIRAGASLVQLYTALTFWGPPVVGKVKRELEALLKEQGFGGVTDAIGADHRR

Compound | IC50 [1] [nM] | IC50 [2] [nM] | EC50 (Plasmodium falciparum [3]) [nM] | IC50 [4] [nM] | EC50 (Plasmodium falciparum [5]) [nM]
Cc1c(Cc2ccc(C(F)(F)F)cc2F)c[nH]c1C(=O)NC1CC1 | 44 | > 100000 | – | – | –
CCOC(=O)c1[nH]cc(Cc2nc3ccccc3o2)c1C | 900 | > 100000 | 1600 | – | –
Cc1c(C2(c3ccc(C(F)(F)F)nc3)CC2)c[nH]c1C(=O)N1CC(F)(F)C1 | 21 | > 100000 | 2 | 17 | –
Cc1c(Cc2ccc(C(F)(F)F)nc2F)c[nH]c1C(=O)NC1CC1 | 11 | > 100000 | 3.1 | 5.4 | –
N#Cc1c(Cc2ccc(C(F)(F)F)nc2)c[nH]c1C(=O)NC1CC1 | 410 | > 100000 | 250 | 430 | –
Cc1c(C2(c3ccc(C(F)(F)F)nc3)CC2)c[nH]c1C(=O)NC1CC1 | 19 | > 100000 | > 10000 | 11 | –
Cc1c(-c2c[nH]c3nc(C(F)(F)F)ccc23)c[nH]c1C(=O)NC1CC1 | 120 | > 100000 | 13 | 10 | –
CCOC(=O)c1[nH]cc(Cc2cccc3ncoc23)c1C | 100 | > 100000 | 220 | 13 | –
Cc1c(Cc2nc3ccccc3o2)c[nH]c1C(=O)NC1CC1 | 670 | > 100000 | 600 | – | –
Cc1c(C(=O)NC2CC2)[nH]c(Cl)c1Cc1ccc(C(F)(F)F)nc1 | 120 | > 100000 | 32 | 17 | –
CCOC(=O)c1[nH]cc(Cc2ccc(C(F)(F)F)c3ncoc23)c1C | 47 | > 100000 | 24 | 16 | –
Cc1c(Cc2ccc(C(F)(F)F)nc2F)c[nH]c1C(=O)NCC(F)(F)F | 79 | > 100000 | 20 | 53 | –
Cc1c(Cc2ccc(C(F)(F)F)nc2F)c[nH]c1C(=O)N1CC(F)(F)C1 | 16 | > 100000 | 2.6 | 12 | –
Cc1c(C2(c3ccc(C(F)(F)F)nc3)CC2)c[nH]c1C(=O)NC(C)c1cc(C(N)=O)[nH]n1 (racemic) | 260 | – | – | 180 | 3000
Cc1c(Cc2ccc(C(F)(F)F)nc2)c[nH]c1C(=O)NC(C)c1cc(C(N)=O)[nH]n1 (racemic) | 650 | – | – | 430 | 51
Cc1c(Cc2ccc(C(F)(F)F)nc2)c[nH]c1C(=O)NC(C)c1cn[nH]c1 (racemic) | 61 | – | – | 48 | 9
Cc1c(Cc2ccc(C(F)(F)F)nc2)c[nH]c1C(=O)NC(C)c1cnn(C)c1 (racemic) | – | – | – | 62 | 5.5
Cc1c(Cc2ccc(C(F)(F)F)nc2)c[nH]c1C(=O)NC(C)c1nc[nH]n1 (racemic) | 260 | – | – | 120 | 160
Cc1c(-c2n[nH]c3cc(C(F)(F)F)ccc23)c[nH]c1C(=O)NC(C)c1cc(C(N)=O)[nH]n1 (racemic) | 32000 | – | 500 | – | –
Cc1cc(C(C)NC(=O)c2[nH]cc(Cc3ccc(C(F)(F)F)nc3)c2C)no1 (racemic) | – | – | – | 30 | 9
Cc1[nH]c(C(=O)NC(C)c2nc[nH]n2)c(C)c1Cc1ccc(C(F)(F)F)nc1 (stereo in doubt; form 1) | 290 | – | – | 140 | 140

Compound | IC50 [1] [nM] | IC50 [2] [nM] | EC50 (Plasmodium falciparum [3]) [nM] | IC50 [4] [nM] | EC50 (Plasmodium falciparum [5]) [nM]
Cc1cc(C(C)NC(=O)c2[nH]c(C)c(Cc3ccc(C(F)(F)F)nc3)c2C)no1 (stereo in doubt; form 1) | 65 | – | – | 30 | 12
Cc1c(Cc2ccc(C(F)(F)F)nc2)c[nH]c1C(=O)NC(C)c1cc(C(N)=O)[nH]n1 (stereo in doubt; form 1) | 35000 | – | – | 230 | 24
Cc1c(Cc2ccc(F)c3ccncc23)c[nH]c1C(=O)NC(C)c1nc[nH]n1 (stereo in doubt; form 1) | 44 | – | – | 29 | 9.5
Cc1c(C2(c3cccc(C(F)(F)F)c3)CC2)c[nH]c1C(=O)NC(C)c1nc[nH]n1 (stereo in doubt; form 1) | 110 | – | – | 40 | 48
Cc1c(Cc2ccc(C(F)(F)F)nc2)c[nH]c1C(=O)NC(C)c1nc[nH]n1 (stereo in doubt; form 1) | 250 | – | – | 110 | 66
Cc1cc(C(C)NC(=O)c2[nH]cc(C3(c4ccc(C(F)(F)F)nc4)CC3)c2C)no1 (stereo in doubt; form 1) | 16 | – | – | 30 | 11
Cc1c(C2(c3ccc(C(F)(F)F)c(F)c3)CC2)c[nH]c1C(=O)NC(C)c1nc[nH]n1 (stereo in doubt; form 1) | 110 | – | – | 61 | 29
Cc1[nH]c(C(=O)NC(C)c2cn[nH]c2)c(C)c1Cc1ccc(C(F)(F)F)nc1 (stereo in doubt; form 1) | 87 | – | – | 88 | 6
Cc1cc(C(C)NC(=O)c2[nH]cc(Cc3ccc(C(F)(F)F)cc3)c2C)no1 (stereo in doubt; form 1) | 46 | – | – | 13 | 170
Cc1cc(C(C)NC(=O)c2[nH]cc(Cc3ccc(C(F)(F)F)nc3)c2C)n[nH]1 (stereo in doubt; form 1) | 100 | – | – | 69 | 20
Cc1c(Cc2ccc(C(F)(F)F)cc2F)c[nH]c1C(=O)NC(C)c1nc[nH]n1 (stereo in doubt; form 1) | 35000 | – | – | 73 | 150
Cc1c(Cc2ccc(C(F)(F)F)nc2)c[nH]c1C(=O)NC(C)c1cc(C#N)[nH]n1 (stereo in doubt; form 1) | 120 | – | – | 83 | 17
[2H]C([2H])(c1ccc(C(F)(F)F)nc1)c1c[nH]c(C(=O)NC(C)c2cc(C)on2)c1C (stereo in doubt; form 1) | – | – | 4.7 | 9.1 | –
Cc1c(C(=O)NC(C)c2nc[nH]n2)[nH]c(Cl)c1Cc1ccc(C(F)(F)F)nc1 (stereo in doubt; form 2) | 200 | – | – | 63 | 40
Cc1cc(C(C)NC(=O)c2[nH]c(C)c(Cc3ccc(C(F)(F)F)nc3)c2C#N)no1 (stereo in doubt; form 2) | 95 | – | – | 99 | 64
Cc1cc(C(C)NC(=O)c2[nH]cc(-c3n[nH]c4cc(C(F)(F)F)ccc34)c2C)no1 (stereo in doubt; form 2) | 560 | – | – | 69 | 62
Cc1[nH]c(C(=O)N[C@H](C)c2cn[nH]c2)c(C#N)c1Cc1ccc(C(F)(F)F)nc1 (stereo in doubt; form 2) | 660 | – | – | 440 | 170
Cc1cc(C(C)NC(=O)c2[nH]cc(-c3c[nH]c4cc(C(F)(F)F)ccc34)c2C)no1 (stereo in doubt; form 2) | 660 | > 100000 | – | 58 | 85
Cc1[nH]c(C(=O)NC(C)c2cnn(C)c2)c(C)c1Cc1ccc(C(F)(F)F)nc1 (stereo in doubt; form 2) | 88 | – | – | 76 | 17
Cc1c(C(=O)NC(C)c2nc[nH]n2)[nH]c(Cl)c1Cc1ccc(C(F)(F)F)nc1 (stereo in doubt; form 4) | 290 | – | – | 100 | 130
